The text below walks through data of PubChem BioAssay (NCI).

SMILES strings stand for the structures.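 Values below derive from 48-hour exposures of cells grown in 96-well plates, with endpoints linearly interpolated between the two concentrations bracketing the appropriate inhibition level. TGI denotes the concentration required for complete inhibition of growth.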 Bounds are passed on as bounds.

Test systems include SF-539 CNS; KM12 colon; DU-145 prostate; MOLT-4 leukemia; SR leukemia; ACHN renal; SF-268 CNS; HCT-15 colon; COLO 205 colon; SW-620 colon; SK-MEL-2 melanoma; UACC-257 melanoma; MDA-N; SK-OV-3 ovarian; 786-0 renal; CAKI-1 renal; A549 NSCLC; HOP-62 NSCLC; HCT-116 colon; UO-31 renal.
Holding throughout (assay): DTP human tumour cell line panel, 48 h

Turning to `COc1cc(C2SC(N)=Nc3c2c(C)nn3C(=O)c2ccc(Cl)cc2)ccc1O` (configuration not stated), the TGI in the assay with SF-539 CNS, in the assay with KM12 colon, with DU-145 prostate, in the assay on MOLT-4 leukemia, in the assay with SR leukemia and in the assay on ACHN renal was > 10 µM in each case. Moreover, the TGI with SF-268 CNS, in the assay on HCT-15 colon, with COLO 205 colon, in the assay with SW-620 colon, in the assay with SK-MEL-2 melanoma and in the assay with UACC-257 melanoma was > 10 µM in each case. Further, the TGI (as a rule, the concentration at which net growth stops) in the assay with MDA-N was 0.406 µM; in the assay with SK-OV-3 ovarian, > 10 µM; with 786-0 renal, > 10 µM; with CAKI-1 renal, > 10 µM; with A549 NSCLC, > 10 µM; in the assay on HOP-62 NSCLC it was > 10 µM. Besides, the TGI with HCT-116 colon was > 10 µM.

For the compound `CN1C(=O)C(O)C[C@@H]1c1ccc(F)cc1` (some centres not stated), the total growth inhibition concentration (TGI) in the assay on SF-539 CNS, with DU-145 prostate, in the assay on MOLT-4 leukemia, in the assay on SR leukemia, in the assay on ACHN renal and with HCT-15 colon was > 100 µM in each case. In addition, the TGI in the assay on COLO 205 colon, in the assay with SK-MEL-2 melanoma, with UACC-257 melanoma, in the assay with MDA-N, in the assay with SK-OV-3 ovarian and in the assay with 786-0 renal was > 100 µM throughout. The TGI with UO-31 renal, in the assay with CAKI-1 renal, with A549 NSCLC, in the assay with HOP-62 NSCLC and in the assay with HCT-116 colon was > 100 µM each time.

For `N=c1oc2ccc(Cl)cc2cc1C(=O)NC1CCCCC1`, the TGI in the assay with SF-539 CNS, in the assay with KM12 colon, with DU-145 prostate, in the assay with MOLT-4 leukemia, with SR leukemia and in the assay on ACHN renal was > 100 µM in each case. The TGI in the assay on SF-268 CNS, in the assay with HCT-15 colon, with COLO 205 colon, in the assay on SW-620 colon, in the assay with SK-MEL-2 melanoma and in the assay on UACC-257 melanoma was > 100 µM each time. Moreover, the TGI with MDA-N, in the assay on SK-OV-3 ovarian, with 786-0 renal, with CAKI-1 renal, with A549 NSCLC and with HOP-62 NSCLC was > 100 µM each time. The TGI in the assay with HCT-116 colon is > 100 µM.

Consider `COC(=O)c1c(OC(C)=O)ccc2c1c1cc3ccccc3c(OC(C)=O)c1n2C`, for which the total growth inhibition concentration (TGI) in the assay with SF-539 CNS is 91.1 µM; with KM12 colon, > 100 µM; in the assay on DU-145 prostate, 44.6 µM; in the assay with MOLT-4 leukemia, > 100 µM; in the assay on SR leukemia, > 100 µM; in the assay on ACHN renal, 89.4 µM. The concentration for total growth inhibition (TGI) in the assay on SF-268 CNS is > 100 µM; in the assay with HCT-15 colon, > 100 µM; in the assay on COLO 205 colon, 69.8 µM; in the assay with SK-MEL-2 melanoma, > 100 µM; in the assay on MDA-N, > 100 µM; in the assay on SK-OV-3 ovarian, 55.2 µM. Also, the TGI is 43.2 µM in the assay with 786-0 renal; > 100 µM in the assay on UO-31 renal; 70.3 µM in the assay with CAKI-1 renal; > 100 µM with A549 NSCLC; > 100 µM in the assay on HOP-62 NSCLC; 74 µM with HCT-116 colon.

As for `N#C/C=C\c1ccc(-c2cc(C(F)(F)F)cc(C(F)(F)F)c2)o1`, the TGI in the assay with SF-539 CNS was 26.6 µM; in the assay with KM12 colon it was > 100 µM; with DU-145 prostate it was > 100 µM; with MOLT-4 leukemia, > 100 µM; in the assay with SR leukemia it was 40.7 µM; in the assay with ACHN renal, > 100 µM. In addition, the TGI is 69.7 µM in the assay on SF-268 CNS; > 100 µM with COLO 205 colon; > 100 µM with SW-620 colon; 41 µM in the assay with SK-MEL-2 melanoma; > 100 µM in the assay with UACC-257 melanoma; 71.6 µM with MDA-N. For the same compound, the TGI was > 100 µM in the assay on SK-OV-3 ovarian; 70.5 µM with 786-0 renal; > 100 µM in the assay with UO-31 renal; > 100 µM in the assay on CAKI-1 renal; > 100 µM with A549 NSCLC; 47.3 µM in the assay on HOP-62 NSCLC. The TGI with HCT-116 colon was > 100 µM.

Take `Cc1cccc2c(=O)c3c(O)cc4c(c3n(C)c12)C=CC(C)(C)O4`: the TGI in the assay on SF-539 CNS is > 100 µM; in the assay with KM12 colon it was > 100 µM; in the assay with DU-145 prostate, > 100 µM; in the assay with MOLT-4 leukemia, > 100 µM; in the assay with SR leukemia, 54.6 µM; in the assay with ACHN renal it was > 100 µM. The TGI in the assay on SF-268 CNS, with HCT-15 colon, with COLO 205 colon, in the assay on SW-620 colon, in the assay with SK-MEL-2 melanoma and with UACC-257 melanoma was > 100 µM each time. The TGI with MDA-N, in the assay on SK-OV-3 ovarian, in the assay on 786-0 renal, with CAKI-1 renal, with A549 NSCLC and with HOP-62 NSCLC was > 100 µM in each case. Moreover, in the assay with HCT-116 colon, the TGI was > 100 µM.

Take `CC(C)C(=O)CP(=O)(O)O`: the TGI in the assay on SF-539 CNS, with KM12 colon, in the assay with DU-145 prostate, with MOLT-4 leukemia, in the assay with SR leukemia and in the assay on ACHN renal was > 100 µM throughout. In addition, the TGI in the assay on SF-268 CNS, in the assay on HCT-15 colon, in the assay with COLO 205 colon, in the assay on SW-620 colon, with SK-MEL-2 melanoma and with UACC-257 melanoma was > 100 µM each time. Further, the concentration for total growth inhibition (TGI) in the assay on MDA-N, with SK-OV-3 ovarian, in the assay on 786-0 renal, in the assay on CAKI-1 renal, in the assay with A549 NSCLC and in the assay on HOP-62 NSCLC was > 100 µM in each case. Also, the TGI in the assay with HCT-116 colon is > 100 µM.

Regarding `CC(C)[Si](OC1=CCC[C@H]2NC(=O)[C@@H](Cc3ccc([N+](=O)[O-])cc3)[C@@]12C)(C(C)C)C(C)C`, the TGI in the assay on SF-539 CNS is 5.41 µM; with KM12 colon, 13.1 µM; with DU-145 prostate, 21.3 µM; in the assay with MOLT-4 leukemia, > 100 µM; in the assay on SR leukemia, 8.02 µM; in the assay with ACHN renal, 4.28 µM. In addition, the TGI was 24.8 µM in the assay on SF-268 CNS; 15.6 µM with HCT-15 colon; 17 µM with COLO 205 colon; 28 µM in the assay with SK-MEL-2 melanoma; 17.8 µM with UACC-257 melanoma; 18 µM with MDA-N. Besides, the concentration for total growth inhibition (TGI) was 21.7 µM in the assay with SK-OV-3 ovarian; 17.8 µM in the assay with 786-0 renal; 26.4 µM with UO-31 renal; 26.2 µM in the assay on CAKI-1 renal; 5.17 µM in the assay on A549 NSCLC; 17.3 µM with HOP-62 NSCLC. The same compound came in with a TGI with HCT-116 colon of 12.7 µM.

Regarding `NC(=O)N=Nc1c2ccccc2n2[nH]ccc12`, the TGI in the assay with SF-539 CNS, in the assay on KM12 colon, with DU-145 prostate, in the assay on MOLT-4 leukemia, with SR leukemia and in the assay on ACHN renal was > 100 µM each time. Moreover, the TGI in the assay on SF-268 CNS, in the assay on HCT-15 colon, in the assay on COLO 205 colon, with SW-620 colon, in the assay with SK-MEL-2 melanoma and in the assay on UACC-257 melanoma was > 100 µM each time. The TGI in the assay on MDA-N, in the assay with SK-OV-3 ovarian, in the assay on 786-0 renal, with CAKI-1 renal, with A549 NSCLC and in the assay on HOP-62 NSCLC was > 100 µM throughout. Besides, the TGI in the assay on HCT-116 colon is > 100 µM.

Regarding `COc1cccc(-c2cc(=O)c3cc(N4CCCC4)ccc3[nH]2)c1`, the TGI with SF-539 CNS is < 0.001 µM; in the assay with KM12 colon, 0.0111 µM; in the assay with DU-145 prostate, < 0.001 µM; in the assay on MOLT-4 leukemia, > 10 µM; in the assay on SR leukemia it was < 0.001 µM; with ACHN renal, > 10 µM. Moreover, the TGI in the assay with SF-268 CNS was > 10 µM; in the assay with HCT-15 colon, 0.00647 µM; with COLO 205 colon, < 0.001 µM; in the assay with SW-620 colon it was > 10 µM; with UACC-257 melanoma, > 10 µM; with MDA-N, < 0.001 µM. The TGI in the assay with 786-0 renal is > 10 µM; in the assay with UO-31 renal, > 10 µM; with CAKI-1 renal it was > 10 µM; with A549 NSCLC, > 10 µM; with HOP-62 NSCLC it was > 10 µM; with HCT-116 colon, 0.0348 µM.

In the case of `CC(C)=C=CC(C)(C)NS(=O)(=O)NC(C)(C)C=C=C(C)C`, the TGI in the assay with SF-539 CNS, in the assay on KM12 colon, in the assay with DU-145 prostate, in the assay on SR leukemia, in the assay on ACHN renal and in the assay on SF-268 CNS was > 100 µM each time. Moreover, the concentration for total growth inhibition (TGI) with HCT-15 colon, in the assay with COLO 205 colon, in the assay on SW-620 colon, in the assay with SK-MEL-2 melanoma, with UACC-257 melanoma and in the assay with MDA-N was > 100 µM throughout. The TGI in the assay with SK-OV-3 ovarian, in the assay with 786-0 renal, with CAKI-1 renal, with A549 NSCLC, with HOP-62 NSCLC and in the assay with HCT-116 colon was > 100 µM throughout.

For `S=c1sscc1N1CCSc2ssc(=S)c21`, the concentration for total growth inhibition (TGI) with SF-539 CNS is > 100 µM; in the assay with KM12 colon it was > 100 µM; with DU-145 prostate it was 81.6 µM; with MOLT-4 leukemia, > 100 µM; in the assay with SR leukemia, > 100 µM; with ACHN renal, > 100 µM. Also, the TGI in the assay on SF-268 CNS, with HCT-15 colon, in the assay on COLO 205 colon, with SW-620 colon, in the assay with SK-MEL-2 melanoma and in the assay on UACC-257 melanoma was > 100 µM each time. Moreover, the TGI in the assay with MDA-N, with 786-0 renal, in the assay with UO-31 renal, in the assay on CAKI-1 renal, in the assay with A549 NSCLC and in the assay with HCT-116 colon was > 100 µM in each case.
